Results published in patent publication US9233989B2, “Sila analogs of oxazolidinone derivatives and synthesis thereof” (Council of Scientific & Industrial Research, priority 2011, dated 2016).
Converted amounts (≈) assume the structure as drawn.

Experiments:
S.aureus DB00026 = assay: MIC by microbroth dilution method; format: cell-based
[1] = tested on: S.aureus ATCC Newman 25904; assay: MIC by microbroth dilution method; format: cell-based
S.epidermidis ATCC 12228 = assay: MIC by microbroth dilution method; format: cell-based
MRSA DB 00026 = assay: MIC by microbroth dilution method; format: cell-based, S. aureus
E.coli 7632 = assay: MIC by microbroth dilution method; format: cell-based
S.epidermis St 358 = assay: MIC by microbroth dilution method; format: cell-based, S. epidermidis
[2] = tested on: S.aureus ATCC 13709 Smith; assay: MIC by microbroth dilution method; format: cell-based
MRSA 252 BAA 1720 = assay: MIC by microbroth dilution method; format: cell-based, S. aureus
MRSE ATCC 35984 = assay: MIC by microbroth dilution method; format: cell-based, S. epidermidis
MRSA ATCC 43300 = assay: MIC by microbroth dilution method; format: cell-based, S. aureus
[3] = tested on: S.aureus ATCC 49775 PVL + ve; format: cell-based
[4] = tested on: S.aureus 13709 LNZ mutant; format: cell-based
E.faecalis ATCC 19433 = assay: MIC by microbroth dilution method; format: cell-based
MRSE ATCC 35983 = assay: MIC by microbroth dilution method; format: cell-based, S. epidermidis
MRSA ATCC BAA 39 = assay: MIC by microbroth dilution method; format: cell-based, S. aureus
[5] = tested on: S.aureus ATCC 700699 Mu50; assay: MIC by microbroth dilution method; format: cell-based
S.aureus ATCC 29213 = assay: MIC by microbroth dilution method; format: cell-based
[6] = tested on: Mycobacterium tuberculosis H37Rv; assay: Anti-TB activity, colorimetric resazurin microtiter assay; format: cell-based; conditions: for MIC: Mycobacterium tuberculosis, H37RV, read-out: MIC, Minimum Inhibitory Concentration (90%)
E.faecium 06076 VRE = assay: MIC by microbroth dilution method; format: cell-based
E.faecalis ATCC 29212 = assay: MIC by microbroth dilution method; format: cell-based
[7] = tested on: E.faecalis ATCC 51299(VRE&HLAR); assay: MIC by microbroth dilution method; format: cell-based
MRSA 0-2657 = assay: MIC by microbroth dilution method; format: cell-based, S. aureus
MRSA 562 = assay: MIC by microbroth dilution method; format: cell-based, S. aureus
E.faecium ATCC 19434 = assay: MIC by microbroth dilution method; format: cell-based
S.aureus2 (PVL + ve) = format: cell-based, S. aureus
E.faecium ATCC 3567 = assay: MIC by microbroth dilution method; format: cell-based
E.faecium ATCC 35667 = assay: MIC by microbroth dilution method; format: cell-based
E.faecium ATCC 49224 = assay: MIC by microbroth dilution method; format: cell-based
E.faecium 134 VRE = assay: MIC by microbroth dilution method; format: cell-based
E.faecalis SP 346 VRE = assay: MIC by microbroth dilution method; format: cell-based
S.epidermidis ATCC 14990 = assay: MIC by microbroth dilution method; format: cell-based
E.faecium 6A VRE = assay: MIC by microbroth dilution method; format: cell-based

| SMILES | MIC (S.aureus DB00026) [µg/mL] | MIC [1] [µg/mL] | MIC (S.epidermidis ATCC 12228) [µg/mL] | MIC (MRSA DB 00026) [µg/mL] | MIC (E.coli 7632) [µg/mL] | MIC (S.epidermis St 358) [µg/mL] | MIC [2] [µg/mL] | MIC (MRSA 252 BAA 1720) [µg/mL] | MIC (MRSE ATCC 35984) [µg/mL] | MIC (MRSA ATCC 43300) [µg/mL] | MIC [3] [µg/mL] | MIC [4] [µg/mL] | MIC (E.faecalis ATCC 19433) [µg/mL] | MIC (MRSE ATCC 35983) [µg/mL] | MIC (MRSA ATCC BAA 39) [µg/mL] | MIC [5] [µg/mL] | MIC (S.aureus ATCC 29213) [µg/mL] | MIC [6] [µg/mL] | MIC (E.faecium 06076 VRE) [µg/mL] | MIC (E.faecalis ATCC 29212) [µg/mL] | also measured |
| --- | --- | --- | --- | --- | --- | --- | --- | --- | --- | --- | --- | --- | --- | --- | --- | --- | --- | --- | --- | --- | --- |
| COC(=O)NC[C@H]1CN(c2cc(F)c(N3CC[Si](C)(C)CC3)c(F)c2)C(=O)O1 [NDS-10053, (S)-methyl(3-(4-(4,4-dimethyl-1,4-azasilinan-1-yl)-3,5-difluorophenyl)-2-oxooxazolidin-5-yl)methylcarbamate] | 16 (≈ 38.7 µM) | 16 (≈ 38.7 µM) | 8 (≈ 19.3 µM) | 32 (≈ 77.4 µM) | > 32 | 16 (≈ 38.7 µM) | 16 (≈ 38.7 µM) | 8 (≈ 19.3 µM) | 8 (≈ 19.3 µM) | 16 (≈ 38.7 µM) | 16 (≈ 38.7 µM) | > 32 | 32 (≈ 77.4 µM) | 32 (≈ 77.4 µM) | 8 (≈ 19.3 µM) | 8 (≈ 19.3 µM) | 16 (≈ 38.7 µM) | 50 (≈ 121 µM) | > 32 | 32 (≈ 77.4 µM) | MIC [7]: 16 µg/mL (≈ 38.7 µM); MIC (MRSA 0-2657): 8 µg/mL (≈ 19.3 µM); MIC (MRSA 562): 16 µg/mL (≈ 38.7 µM); MIC (E.faecium ATCC 19434): 16 µg/mL (≈ 38.7 µM); MIC (S.aureus2 (PVL + ve)): 16 µg/mL (≈ 38.7 µM); MIC (E.faecium ATCC 3567): 16 µg/mL (≈ 38.7 µM); MIC (E.faecium ATCC 35667): 8 µg/mL (≈ 19.3 µM); MIC (E.faecium ATCC 49224): 32 µg/mL (≈ 77.4 µM); MIC (E.faecium 134 VRE): 32 µg/mL (≈ 77.4 µM); MIC (E.faecalis SP 346 VRE): 32 µg/mL (≈ 77.4 µM); MIC (S.epidermidis ATCC 14990): 8 µg/mL (≈ 19.3 µM); MIC (E.faecium 6A VRE): 4 µg/mL (≈ 9.67 µM) |
| C[Si]1(C)CCN(c2c(F)cc(N3C[C@H](Cn4ccnn4)OC3=O)cc2F)CC1 [NDS-10058, (R)-5-((1H-1,2,3-triazol-1-yl)methyl)-3-(4-(4,4-dimethyl-1,4-azasilinan-1-yl)-3,5-difluorophenyl)oxazolidin-2-one] | > 32 | 32 (≈ 78.5 µM) | > 32 | > 32 | 16 (≈ 39.3 µM) | 32 (≈ 78.5 µM) | > 32 | > 32 | 32 (≈ 78.5 µM) | > 32 | 32 (≈ 78.5 µM) | 32 (≈ 78.5 µM) | 32 (≈ 78.5 µM) | 16 (≈ 39.3 µM) | > 32 | > 32 | > 32 | 12.5 (≈ 30.7 µM) | 32 (≈ 78.5 µM) | 32 (≈ 78.5 µM) | anti-tubercular activity (in words) ([6]; Mycobacterium tuberculosis H37Rv): good anti-tubercular activity; MIC [7]: 32 µg/mL (≈ 78.5 µM); MIC (MRSA 0-2657): > 32 µg/mL; MIC (MRSA 562): > 32 µg/mL; MIC (E.faecium ATCC 19434): 32 µg/mL (≈ 78.5 µM); MIC (S.aureus2 (PVL + ve)): 32 µg/mL (≈ 78.5 µM); MIC (E.faecium ATCC 3567): > 32 µg/mL; MIC (E.faecium ATCC 35667): > 32 µg/mL; MIC (E.faecium ATCC 49224): > 32 µg/mL; MIC (E.faecium 134 VRE): 4 µg/mL (≈ 9.82 µM); MIC (E.faecalis SP 346 VRE): 32 µg/mL (≈ 78.5 µM); MIC (S.epidermidis ATCC 14990): > 32 µg/mL; MIC (E.faecium 6A VRE): 16 µg/mL (≈ 39.3 µM) |
| COC(=S)NC[C@H]1CN(c2ccc(N3CC[Si](C)(C)CC3)c(F)c2)C(=O)O1 [NDS-10062, (S)—O-methyl((3-(4-(4,4-dimethyl-1,4-azasilinan-1-yl)-3-fluorophenyl)-2-oxooxazolidin-5-yl)methyl)carbamothioate] | 4 (≈ 9.72 µM) | 4 (≈ 9.72 µM) | > 32 | 4 (≈ 9.72 µM) | 2 (≈ 4.86 µM) | 4 (≈ 9.72 µM) | 4 (≈ 9.72 µM) | 8 (≈ 19.4 µM) | 2 (≈ 4.86 µM) | 4 (≈ 9.72 µM) | 4 (≈ 9.72 µM) | 4 (≈ 9.72 µM) | 2 (≈ 4.86 µM) | 4 (≈ 9.72 µM) | 4 (≈ 9.72 µM) | 8 (≈ 19.4 µM) | 4 (≈ 9.72 µM) | 50 (≈ 121 µM) | 4 (≈ 9.72 µM) | 1 (≈ 2.43 µM) | MIC [7]: 4 µg/mL (≈ 9.72 µM); MIC (MRSA 0-2657): 4 µg/mL (≈ 9.72 µM); MIC (MRSA 562): 4 µg/mL (≈ 9.72 µM); MIC (E.faecium ATCC 19434): 8 µg/mL (≈ 19.4 µM); MIC (S.aureus2 (PVL + ve)): 4 µg/mL (≈ 9.72 µM); MIC (E.faecium ATCC 3567): 4 µg/mL (≈ 9.72 µM); MIC (E.faecium ATCC 35667): 4 µg/mL (≈ 9.72 µM); MIC (E.faecium ATCC 49224): 4 µg/mL (≈ 9.72 µM); MIC (E.faecium 134 VRE): 4 µg/mL (≈ 9.72 µM); MIC (E.faecalis SP 346 VRE): 4 µg/mL (≈ 9.72 µM); MIC (S.epidermidis ATCC 14990): 4 µg/mL (≈ 9.72 µM); MIC (E.faecium 6A VRE): 8 µg/mL (≈ 19.4 µM) |
| CCC(=O)NC[C@H]1CN(c2cc(F)c(N3CC[Si](C)(C)CC3)c(F)c2)C(=O)O1 [NDS-10056, (S)—N-((3-(4-(4,4-dimethyl-1,4-azasilinan-1-yl)-3,5-difluorophenyl)-2-oxooxazolidin-5-yl)methyl)propionamide] | > 32 | 16 (≈ 38.9 µM) | 8 (≈ 19.4 µM) | 32 (≈ 77.8 µM) | > 32 | 32 (≈ 77.8 µM) | > 32 | 32 (≈ 77.8 µM) | 32 (≈ 77.8 µM) | 16 (≈ 38.9 µM) | 32 (≈ 77.8 µM) | > 32 | 32 (≈ 77.8 µM) | 32 (≈ 77.8 µM) | 32 (≈ 77.8 µM) | 16 (≈ 38.9 µM) | > 32 | 50 (≈ 121 µM) | > 32 | 32 (≈ 77.8 µM) | MIC [7]: 8 µg/mL (≈ 19.4 µM); MIC (MRSA 0-2657): 16 µg/mL (≈ 38.9 µM); MIC (MRSA 562): 8 µg/mL (≈ 19.4 µM); MIC (E.faecium ATCC 19434): 32 µg/mL (≈ 77.8 µM); MIC (S.aureus2 (PVL + ve)): 8 µg/mL (≈ 19.4 µM); MIC (E.faecium ATCC 3567): 32 µg/mL (≈ 77.8 µM); MIC (E.faecium ATCC 35667): 32 µg/mL (≈ 77.8 µM); MIC (E.faecium ATCC 49224): 32 µg/mL (≈ 77.8 µM); MIC (E.faecium 134 VRE): 32 µg/mL (≈ 77.8 µM); MIC (E.faecalis SP 346 VRE): 16 µg/mL (≈ 38.9 µM); MIC (S.epidermidis ATCC 14990): 16 µg/mL (≈ 38.9 µM); MIC (E.faecium 6A VRE): 8 µg/mL (≈ 19.4 µM) |
